Test results from US6723897B2, “Methods for controlling gibberellin levels” (Monsanto Technology, LLC, priority 1998, dated 2004).

How the values were obtained:
[1] = test system: wild-type soybean line A3237; assay: Experiment I greenhouse test, seed imbibition, wild-type soybean; details: 0.25 mg/ml; seeds imbibed 5 hours
Protocol: Compounds are first prepared as 25 mg/ml solutions in ethanol as described above, and then diluted into 40 ml of water to prepare the final 0.25 mg/ml treatment solutions. Visual observations on solubilities (milky, clear, etc.) of the treatment solutions are noted. The treatment solutions are divided into two 20 ml portions, each in 50 ml plastic centrifuge tubes. In addition to treating seeds with solutions containing the test compounds, untreated seeds and seeds imbibed in ethanol-water solution (300 μl ethanol in 30 mls of water) are also included in this experiment as controls. […]
(§1) After imbibition, seeds are removed from the test tubes, placed on wax paper to dry, and planted in bread pans containing farm soil amended with fertilizer at 20 seeds/pan. Seeds are covered with 0.5″ of vermiculite. Pans are transferred to the greenhouse, which had day/night temperatures of 86/68° F. (30/20° C.), and subirrigated. Illumination is at a light intensity of 300-400 μmolm^−2s^−1 photosynthetic photon flux; 16 hours light/8 hours dark. Subsequent waterings are also through sub-irrigation until the test is terminated three weeks later. Observations included the number of dwarf, intermediate, and tall plants; plant height; uniformity of rescue; and any visual effects.

[2] = test system: constitutively GA-deficient transgenic dwarf soybeans (line 719); assay: Summary of first two greenhouse experiments, rescue of GA-deficient soybeans; assay type: in vivo, Glycine max; set-up: key: +: transgenic soybeans are rescued; 0: transgenic soybeans are not rescued
Protocol: Compounds are first prepared as 25 mg/ml solutions in ethanol as described above, and then diluted into 40 ml of water to prepare the final 0.25 mg/ml treatment solutions. Visual observations on solubilities (milky, clear, etc.) of the treatment solutions are noted. The treatment solutions are divided into two 20 ml portions, each in 50 ml plastic centrifuge tubes. In addition to treating seeds with solutions containing the test compounds, untreated seeds and seeds imbibed in ethanol-water solution (300 μl ethanol in 30 mls of water) are also included in this experiment as controls. In the latter case, 20 seeds are imbibed in 30 mls of solution for six hours.
as §1, with “Two soybean varieties are selected for testing: constitutively GA-deficient transgenic dwarf soybean line 719 (plasmid pMON29801, constitutive FMV promoter/asCPScc; which is a mixture of 719−2 and 719+17), and A3237, the wild-type parent material. […] After” for “After”
All compounds are tested at final concentrations of 0.25, 0.025, and 0.0025 mg/ml except for GA9, which is tested at 0.125, 0.0125, and 0.00125 mg/ml. (The compounds are tested in Experiment I at only one concentration, i.e., 0.25 mg/ml). Test tubes contained […] of ethanol solution per tube. Final volumes are made up to 30 ml with deionized water. After shaking, the treatment solutions (15 ml each) are transferred to each of two 50 ml test tubes. Treatments 1 to 27 are performed on wild-type line A3237; treatments 28 to 54 are performed on constitutively GA-deficient transgenic dwarf soybean line 719 (a mixture of 719−2 and 719+17). Twenty seeds are used in each treatment. Dry seed, ethanol/water-imbibed seed (1% ethanol in water, v/v), and water-imbibed seeds are included as controls. Seeds are imbibed for 6 hours in the test solutions, then planted in bread pans containing Metromix 350 (The Scotts Company, Marysville, Ohio), and covered with 0.5″ Metro-mix. Covered pans are transferred to the greenhouse and subirrigated. Illumination is at a light intensity of 300-400 μmolm^−2s^−1 photosynthetic photon flux; 16 hours light/8 hours dark. Subsequent waterings are also through sub-irrigation until the test is terminated three weeks later. Observations included the number of dwarf, intermediate, and tall plants; plant height; uniformity of rescue; and any visual effects. Digital photographs are also taken.

[3] = test system: constitutively GA-deficient transgenic dwarf soybean line 719; assay: Experiment IV field test, seed imbibition, compacted soil; assay type: in vivo, Glycine max; details: for field result on line 719 in words: over the rates tested (0.0025-0.25 mg/ml); for No. of Dwarfs Not Rescued / Total Plants: imbibed 8 hours; for Total Plants: 25 seeds planted; for % of Dwarfs Rescued: relative to 8.5 true dwarfs per plot
Excerpt: The objective of these experiments is to determine if there is a greenhouse to field translation of results with selected GA compounds with respect to rescue of constitutively GA-deficient transgenic dwarf soybeans and elongation of wild-type plants. […] For the first field trial, the solutions previously used for the second greenhouse test, and stored in the freezer, are employed. […] For comparison, freshly prepared solutions of GA3 are also employed. The compounds tested included kaurenoic acid, fresh GA3, stored GA3, GA3-3-acetate, GA5, GA9, and GA12. […] Seeds of line […] are imbibed for 8 hours. Untreated dry seeds served as controls. After imbibition, the remaining solutions are returned to the freezer. Seeds are kept on the benchtop at room temperature overnight. […] Untreated dry seeds served as controls. Following planting line 719, all plots (both […] and line 719) are compacted by driving an all-terrain vehicle over the planted rows twice, and watered. All GA solutions are discarded. The results are shown in Table 15 for constitutively GA-deficient transgenic dwarf line 719 only as insufficient […] germinated to make any useful observations. Observations included number of plants that germinated, number rescued, and visual observations. Two points should be noted concerning the data in Table 15. […] Next, the number of dwarfs not rescued in any treatment is subtracted from 8.5.

[4] = 0.25 mg/ml solution (ethanol-water)
[5] = 0.0025 mg/ml solution (ethanol-water)
[6] = 0.025 mg/ml solution (ethanol-water)

SMILES	Observation on Wild-Type Line A3237 [1]	Rescue of GA-deficient soybeans [2, 4]	field result on line 719 in words [3]	No. of Dwarfs Not Rescued ([3]; stored solution 0.0025 mg/ml)	Total Plants ([3]; stored solution 0.0025 mg/ml)	% of Dwarfs Rescued ([3]; stored solution 0.0025 mg/ml) [%]	No. of Dwarfs Not Rescued ([3]; stored solution 0.025 mg/ml)	Total Plants ([3]; stored solution 0.025 mg/ml)	% of Dwarfs Rescued ([3]; stored solution 0.025 mg/ml) [%]	Visual Observations on Transgenic Line 719 ([3]; stored solution 0.25 mg/ml)	No. of Dwarfs Not Rescued ([3]; stored solution 0.25 mg/ml)	Total Plants ([3]; stored solution 0.25 mg/ml)	% of Dwarfs Rescued ([3]; stored solution 0.25 mg/ml) [%]	Rescue of GA-deficient soybeans [2, 5]	Rescue of GA-deficient soybeans [2, 6]	other results
C=C1C[C@]23C[C@H]1CC[C@H]2[C@@]12CCC[C@@](C)(C(=O)O1)[C@H]2[C@@H]3C(=O)O [GA9]	3	+	slight elongation, and no uniformity in height	7	20	17.6	0	22	100	Slightly elongated plants	0	17	100			Rescue of GA-deficient soybeans ([2]; 0.00125 mg/ml solution (ethanol-water)): 0; Rescue of GA-deficient soybeans ([2]; 0.0125 mg/ml solution (ethanol-water)): +; Rescue of GA-deficient soybeans ([2]; 0.125 mg/ml solution (ethanol-water)): +
C=C1C[C@@]23CC[C@H]4[C@@](C)(CCC[C@@]4(C)C(=O)O)[C@@H]2CC[C@@H]1C3 [kaurenoic acid]	0		poor uniformity in plant height	5	23	41.2	4	17	52.9		6	22	29.4	0	0	
C=C1C[C@]23C[C@@]1(O)CC[C@H]2[C@@]12C=C[C@H](O)[C@@](C)(C(=O)O1)[C@H]2[C@@H]3C(=O)O [GA3, gibberellic acid]	3	+	poor emergence at all rates	0	14	100	0	9	100	Extremely elongated plants	0	7	100	+	+	No. of Dwarfs Not Rescued ([3]; fresh solution 0.0025 mg/ml): 0; Total Plants ([3]; fresh solution 0.0025 mg/ml): 13; % of Dwarfs Rescued ([3]; fresh solution 0.0025 mg/ml): 100%; No. of Dwarfs Not Rescued ([3]; fresh solution 0.025 mg/ml): 1; Total Plants ([3]; fresh solution 0.025 mg/ml): 13; % of Dwarfs Rescued ([3]; fresh solution 0.025 mg/ml): 88.2%; No. of Dwarfs Not Rescued ([3]; fresh solution 0.25 mg/ml): 0; Total Plants ([3]; fresh solution 0.25 mg/ml): 1; % of Dwarfs Rescued ([3]; fresh solution 0.25 mg/ml): 100%; Visual Observations on Transgenic Line 719 ([3]; stored solution 0.025 mg/ml): Extremely elongated plants
C=C1C[C@]23C[C@H]1CC[C@H]2[C@]1(C)CCC[C@@](C)(C(=O)O)[C@H]1[C@@H]3C(=O)O [GA12]	−1	+	good emergence	5	20	41.2	4	22	52.9		0	20	100	0	+	
C=C1C[C@]23C[C@@]1(O)CC[C@H]2[C@@]12CC=C[C@@](C)(C(=O)O1)[C@H]2[C@@H]3C(=O)O [GA5]	4	+	slight to excessive elongation, and no uniformity in plant height	8	25	5.9	0	20	100	Extremely elongated plants	0	7	100	+	+	
C=C1C[C@]23C[C@@]1(O)CC[C@H]2[C@@]12C=C[C@H](OC(C)=O)[C@@](C)(C(=O)O1)[C@H]2[C@@H]3C(=O)O [GA3-3-acetate]	3	+	excessive elongation, and no uniformity in plant height	0	21	100	0	1	100	Extremely elongated plants	0	3	100	+	+	
